From US20250170132A1, “SALTS AND POLYMORPHIC FORMS OF MENIN INHIBITORS AND PHARMACEUTICAL COMPOSITIONS THEREOF” (Syndax Pharmaceuticals, Inc., priority 2023, published 2025)
Where two headings read alike, the source gives them in different places.

Key:
menin = biological target: T1, menin (Homo sapiens, UniProt O00255); assay: Binding to the MLL1 binding pocket on menin
T1 sequence (O00255 1-610): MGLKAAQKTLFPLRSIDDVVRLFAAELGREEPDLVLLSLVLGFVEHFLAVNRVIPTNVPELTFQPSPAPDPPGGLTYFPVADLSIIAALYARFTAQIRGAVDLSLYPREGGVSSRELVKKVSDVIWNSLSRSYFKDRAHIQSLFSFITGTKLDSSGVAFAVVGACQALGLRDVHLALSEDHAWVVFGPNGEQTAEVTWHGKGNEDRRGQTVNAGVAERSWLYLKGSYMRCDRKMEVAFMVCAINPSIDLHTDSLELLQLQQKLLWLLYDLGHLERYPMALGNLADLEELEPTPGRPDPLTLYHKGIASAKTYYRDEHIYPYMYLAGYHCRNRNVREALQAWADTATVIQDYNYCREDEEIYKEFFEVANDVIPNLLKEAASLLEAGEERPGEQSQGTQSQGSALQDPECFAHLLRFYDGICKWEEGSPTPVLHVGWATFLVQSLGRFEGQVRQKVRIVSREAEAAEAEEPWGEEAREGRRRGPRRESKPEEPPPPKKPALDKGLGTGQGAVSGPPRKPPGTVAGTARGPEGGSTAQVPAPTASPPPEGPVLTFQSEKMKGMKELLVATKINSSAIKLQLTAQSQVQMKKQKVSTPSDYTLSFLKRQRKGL
Source text: (§1) Menin inhibitor (e.g., Compound A or a pharmaceutically acceptable salt thereof) disrupts the interaction between menin and the MLL1 fusion proteins which is required for leukemogenic activity, thus impairing expression of critical oncogenes, causing growth arrest and the inhibition of cellular proliferation. Small molecule inhibitors of the menin-MLL interaction have been reported.

[1] = tested on: cells harboring MLLr fusions; assay: Activity in cells harboring MLLr fusions; type: cell-based
Source text: as §1

[2] = Excipient compatibility study with Compound A monocitrate monohydrate; type: physicochemical
Procedure: The list of excipients for this study was restricted to those already being used in the tablet formulation provided in Example 7. OpaDry Orange was further added.
Binary mixtures of Compound A monocitrate monohydrate and each excipient, were placed in closed 20 mL borosilicate glass vials (Tables 45-47). The vials were stored at 25° C./60% RH, 30° C./65% RH, and 40° C./75% RH over 8 weeks and later analyzed using methods for Appearance, Compound A Assay, Related Substances, XRPD, and Differential Scanning calorimetry (DSC).

[3] = Pharmacokinetics in patients with relapsed or refractory acute leukemia; type: in vivo, human; conditions: for Tmax: read-out: Tmax Median; for AUC(0-t): read-out: AUC0-12 h
Source text: The pharmacokinetics of Compound A were characterized in patients with relapsed or refractory acute leukemia following single and multiple oral administration of Compound A with or without strong CYP3A4 inhibitors. Steady-state pharmacokinetic parameters are presented as geometric mean [geometric coefficient of variation (% CV)] unless otherwise specified.

CYP3A4 = biological target: T2, CYP3A4 (Homo sapiens, UniProt P08684); assay: Drug interaction studies (clinical studies); type: in vivo; conditions: for AUC increase / Cmax increase: multiple doses
T2 construct: from tissue
T2 sequence (P08684 whole entry): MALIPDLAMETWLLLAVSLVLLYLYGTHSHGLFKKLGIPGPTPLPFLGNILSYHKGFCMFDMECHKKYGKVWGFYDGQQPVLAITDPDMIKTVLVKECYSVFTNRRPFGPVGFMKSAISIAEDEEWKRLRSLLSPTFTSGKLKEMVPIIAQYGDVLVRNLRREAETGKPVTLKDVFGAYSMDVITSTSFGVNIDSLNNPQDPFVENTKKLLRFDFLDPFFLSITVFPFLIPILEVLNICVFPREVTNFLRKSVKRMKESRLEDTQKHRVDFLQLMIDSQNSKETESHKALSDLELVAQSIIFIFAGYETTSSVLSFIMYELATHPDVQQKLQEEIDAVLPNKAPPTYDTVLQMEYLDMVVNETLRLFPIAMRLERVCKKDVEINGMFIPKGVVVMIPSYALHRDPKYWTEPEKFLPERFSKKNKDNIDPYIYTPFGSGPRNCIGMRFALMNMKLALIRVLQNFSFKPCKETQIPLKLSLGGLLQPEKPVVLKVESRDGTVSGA
Source text: Strong CYP3A4 Inhibitors: Compound A AUC and Cmax is increased by 2-fold following concomitant use of multiple doses of Compound A with certain azole antifungals that are strong CYP3A4 inhibitors (i.e., posaconazole, itraconazole, and voriconazole).

[4] = Aqueous solubility of Compound A salts; type: physicochemical; conditions: across the physiological pH range
Procedure: Solubility of Compound A citrate was determined in 3 different types of matrices: unbuffered water, citrate-buffered solutions from pH 3 to 6, and formulations consisting of citrate, advantame, methylparaben sodium, potassium sorbate, and sodium chloride at pH ranging from 3 to 6. Solubility in unbuffered water at ambient temperature was 38.5 mg/mL.
The target pH was reassessed when the F3 formulation was developed. Compound A citrate solubility studies were performed initially in simple buffered solutions to assess solubility trends as a function of pH. […] The target concentration of Compound A was therefore changed to 40 mg/mL as a compromise between drug substance and preservatives dissolution rate and stability.

[5] = Polymorph screening of Compound A citrate salt, form conversion (XRPD, DSC/TGA, DVS); type: physicochemical; conditions: drying of wet cake (Form B); presence of water (Form C)
[6] = Slurry and solvent evaporation polymorph experiments of Compound A citrate salt (Table 9); type: physicochemical; conditions: upon drying
Procedure: Based on the approximate solubility data of Compound A citrate salt, 18 polymorph experiments were started at RT with stirring (Table 9). Wet cakes from the slurry experiments were analyzed after 5 days of stirring. Wet cake XRPD patterns were checked and materials showing no pattern change were heated from RT to 50° C.
Procedure • 1) Slurry at RT: ˜35 mg citrate salt was slurried in different solvents in 4 mL vials using a magnetic stirrer at RT. The solids in slurry were characterized by XRPD after 3-5 days. • 2) Slurry at 50° C.: Slurries with no change in wet cake XRPD pattern when compared to starting material were heated from RT to 50° C. Samples were analyzed after 2-3 days of stirring.
Wet cake samples were isolated and kept at 25° C. for 2 h for drying. After drying, samples were analyzed by XRPD.

[7] = Single crystal structure, solvate exchange under ambient conditions; type: physicochemical; conditions: after exposure to ambient conditions, analyzed at 273 K
Procedure: Plate-like crystals (FIG. 9) were grown by recrystallization from methanol of Compound A monocitrate monomethanolate by evaporation (prepared from methanol/water 90:10 v/v).

[8] = Form C characterization and relative stability of the forms; type: physicochemical; conditions: ambient conditions
Source text: Moreover, HNMR studies validated a 1:1 stoichiometry between the freebase and acid.

[9] = tested on: NPM1c mutant AML patient-derived xenograft models; conditions: orally active menin inhibitor; cited from earlier work
NPM1c cells = conditions: cited from earlier work
[10] = 2 pediatric patients, 160 mg/m^2 without strong CYP3A4 inhibitors
[11] = human, plasma, oral, 163 mg twice daily with strong CYP3A4 inhibitors, steady-state, geometric mean
[12] = human, plasma, oral, 276 mg twice daily without strong CYP3A4 inhibitors, steady-state, geometric mean
[13] = low fat meal, approximately 400-500 calories, 25% of calories from fat
[14] = single dose of radiolabeled Compound A 276 mg, adult patients
[15] = with cobicistat (strong CYP3A4 inhibitor)
[16] = with strong CYP3A4 inhibitor azole antifungals (posaconazole, itraconazole, voriconazole)

CCN(C(=O)c1cc(F)ccc1Oc1cncnc1N1CC2(CCN(C[C@H]3CC[C@H](NS(=O)(=O)CC)CC3)CC2)C1)C(C)C [Compound A, trans N-ethyl-2-((4-(7-((4-(ethylsulfonamido)cyclohexyl)methyl)-2,7-diazaspiro[3.5]nonan-2-yl)pyrimidin-5-yl)oxy)-5-fluoro-N-isopropylbenzamide]
binding affinity to the MLL1 binding pocket on menin (menin): high affinity | activity in cells harboring MLLr fusions [1]: displays activity across a range of cells harboring MLLr fusions | Assay (%) Results ([2]; 8 week, 25° C./60% RH closed): 100.3% | Assay (%) Results ([2]; 8 week, 30° C./65% RH closed): 101.4% | Assay (%) Results ([2]; 8 week, 40° C./75% RH closed): 100.0% | Assay (%) Results ([2]; Initial (t = 0), closed glass vials): 98.8% | Apparent Clearance ([3]; 163 mg twice daily with strong CYP3A4 inhibitors, steady-state, geometric mean): 7 L/h | Apparent Clearance ([3]; 276 mg twice daily without strong CYP3A4 inhibitors, steady-state, geometric mean): 27 L/h | AUC0-tau, individual patients [3, 10]: 16300 ng·h/mL | steady-state Cmax, individual patients [3, 10]: 4790 ng/mL | Dose Proportionality ([3]; dosage range of 113 mg to 339 mg): Dose proportional increases in Cmax and AUC0-12 h | Effect of body weight and BSA on pharmacokinetics ([3]; higher exposures with lower body weight and BSA): significant effect | Metabolism: Primary Pathway ([3]; human, in vivo): CYP3A4 | fraction unbound ([3]; human, in vivo, independent of concentration, read-out: Protein Binding (converted)): 0.1 | AUC ([3]; human, plasma, oral, 95 mg/m2, pediatric patients, 95 mg/m^2 with strong CYP3A4 inhibitors, read-out: steady-state AUC0-tau, geometric mean (geometric CV %)): 14600 ng·h/mL | Cmax ([3]; human, plasma, oral, 95 mg/m2, pediatric patients, 95 mg/m^2 with strong CYP3A4 inhibitors, read-out: steady-state Cmax, geometric mean (geometric CV %)): 3140 ng/mL | AUC ([3]; human, plasma, oral, 160 mg/m2, 2 pediatric patients, 160 mg/m^2 without strong CYP3A4 inhibitors, read-out: AUC0-tau, individual patients): 25600 ng·h/mL | Cmax ([3]; human, plasma, oral, 160 mg/m2, 2 pediatric patients, 160 mg/m^2 without strong CYP3A4 inhibitors, read-out: steady-state Cmax, individual patients): 4950 ng/mL | Cmax ([3]; human, plasma, oral, 163 mg, 163 mg twice daily with strong CYP3A4 inhibitors, steady-state, geometric mean, patients, read-out: Cmax): 3220 ng/mL | Cmax ([3]; human, plasma, oral, 276 mg, 276 mg twice daily without strong CYP3A4 inhibitors, steady-state, geometric mean, patients, read-out: Cmax): 2050 ng/mL | Tmax ([3]; human, plasma, oral, 163 mg twice daily with strong CYP3A4 inhibitors): 2 h | half-life [3, 11]: 7.5 h | AUC(0-t) [3, 11]: 22600 ng·h/mL | Tmax ([3]; human, plasma, oral, 276 mg twice daily without strong CYP3A4 inhibitors): 1 h | half-life [3, 12]: 3.6 h | AUC(0-t) [3, 12]: 10200 ng·h/mL | Vd ([3]; human, plasma, oral, steady-state, geometric mean (% CV), read-out: Apparent Volume of Distribution): 78 L | AUC decrease with low fat meal [3, 13]: 12% | Cmax decrease with low fat meal [3, 13]: 27% | Excretion in Feces [3, 14]: ~49% | Excretion in Feces, unchanged [3, 14]: 7% | Excretion in Urine [3, 14]: ~27% | Excretion in Urine, unchanged [3, 14]: 7% | Accumulation ([3]; steady-state): 2-fold | Time to Steady-State ([3]; twice daily oral dosing, patients): 2 to 3 days | AUC increase (CYP3A4; [15]): 2.5 fold | Cmax increase (CYP3A4; [15]): 2.5 fold | Differences in pharmacokinetics (CYP3A4; with fluconazole (moderate CYP3A4 inhibitor)): No clinically significant differences | Differences in pharmacokinetics (CYP3A4; with isavuconazole (moderate CYP3A4 inhibitor)): No clinically significant differences | AUC increase (CYP3A4; [16]): 2 fold | Cmax increase (CYP3A4; [16]): 2 fold | solubility [4]: high solubility

CCN(C(=O)c1cc(F)ccc1Oc1cncnc1N1CC2(CCN(C[C@H]3CC[C@H](NS(=O)(=O)CC)CC3)CC2)C1)C(C)C.CO.O=C(O)CC(O)(CC(=O)O)C(=O)O [Form B]
stability of polymorphic form / conversion [5]: unstable form and converts to Form A upon drying | Form conversion [6]: converts to Form A upon drying | Solvate exchange of single crystal [7]: transformed into a monohydrate | Form conversion [8]: transitions to Form A

CNc1nc(NC2CCN(Cc3ccc4c(cc(C#N)n4C[C@H](C)N4CCN(S(C)(=O)=O)CC4)c3C)CC2)c2cc(CC(F)(F)F)sc2n1 [KO-539]
anti-leukemic activity [9]: robust anti-leukemic activity

Cc1c(CN2CCC(Nc3ncnc4sc(CC(F)(F)F)cc34)CC2)ccc2c1cc(C#N)n2Cc1cn[nH]c1 [MI-503]
effect on HOXA/MEIS1 transcription program in NPM1c cells (NPM1c cells): suppress the HOXA/MEIS1 transcription program in NPM1c cells, leading to growth arrest, terminal differentiation and cell death
